By EC50 is commonly meant the concentration at which the effect is half-maximal. A word on the IC50: it is the point on the concentration scale where inhibition reaches its midpoint. A higher IC50 goes with weaker potency in that assay.

This experiment concerns CEM cells HIV-1 protection, formazan growth assay. As to the kind of experiment: NCI AIDS Antiviral Assay. To be noted: for IC50: measured here: growth of uninfected CEM cells. In outline: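 Protection of CEM cells against HIV-1 was scored from cell growth (soluble formazan) across five concentrations, with parallel uninfected cells. Lack of protection may reflect toxicity.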

Several values for one entry are separate records, joined by “and”; a condition that tells them apart may be missing. Equal values may be shown once. Activity calls are given as the source filed them.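 Rule for the calls: active = compounds giving half or more protection of infected cells from virus-caused growth loss, again on retest; inactive = the rest.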 Bounds are passed on as bounds.

On to `CC(C)N1CC2CC(CN(C(=O)c3ccccc3)C2)C1`, for which the EC50 was above 676 µM and the IC50 is above 676 µM. `COc1cc2c(cc1OC)C1c3ccccc3CCN1CC2` (stereo not drawn): the EC50 is above 200 µM and the IC50 was 93.3 µM. Regarding `CC(=O)N1CC(=O)N2C(=O)/C(=C/c3ccc(Cl)cc3)N=C12`, the EC50 was above 63.1 µM and the IC50 was found to be 6.92 µM. Take `C1OC2OCC1O2`: the EC50 is above 2450 µM and the IC50 was above 2450 µM. `O=C(CNc1nncs1)NO`: the EC50 is above 1450 µM and the half-inhibitory concentration (IC50) came to 162 µM. In the case of `COC(=O)c1cc(C(c2cc(C(=O)OC)c(OC)c(Br)c2C)C(Cl)(Cl)Cl)c(C)c(Br)c1OC`, the EC50 was above 200 µM and the IC50 came out at 25.7 µM. In the case of `O=C(O)/C(=C\c1ccccc1Cl)S(=O)(=O)c1ccccc1`, the result was inactive. In the case of `CC(=O)NC1CC(C(C)(C)NC(C)=O)CC=C1C` (stereo not drawn), the EC50 is above 269 µM and the IC50 was above 269 µM. For the compound `Cc1ccc([N+](=O)[O-])cc1N=NC(=O)NNc1cc([N+](=O)[O-])ccc1C`, the EC50 was above 200 µM and the IC50 was determined as 32.4 µM. In the case of `Nn1c(=S)[nH]n2cnnc12`, the EC50 was above 1580 µM and the IC50 amounted to 186 µM. As to `O=C(OCCOC(=O)c1ccc2c(c1)C1(SCCS1)c1ccccc1-2)c1ccc2c(c1)C1(SCCS1)c1ccccc1-2`, the EC50 was above 30.2 µM and the IC50 is above 30.2 µM. `COc1cc(C[C@H]2COC(=O)[C@]2(O)Cc2ccc(O)c(OC)c2)ccc1O`: the EC50 was 1.35 µM and the IC50 was found to be 4.79 µM. On to `CC(=O)N(CCc1ccccc1)C(C#N)c1ccccc1` (stereo not drawn), for which the EC50 was above 200 µM and the IC50 is above 200 µM.

As for `COCC(OC)C(CC=C(C#N)C#N)OC` (stereo not drawn), the EC50 was above 44.7 µM and the IC50 was above 44.7 µM. For `c1ccc(CN2CCC3(N4CCOCC4)C(C2)N=NN3c2ccccc2)cc1` (stereo not drawn), the EC50 was above 200 µM and the IC50 worked out at 110 µM. Regarding `Cc1c(N)c(C#N)c2n(C)c3ncccc3n2c1=O`, the EC50 was above 200 µM and the IC50 is above 200 µM.

For `N=c1oc2ccc3ccccc3c2cc1-c1nc2ccccc2c(=O)[nH]1`, the EC50 is above 50.1 µM and the IC50 came out at 7.24 µM. Take `CC(C)CCC[C@@H](C)[C@H]1CC[C@H]2C3=C[C@H](OS(=O)(=O)O)[C@@]4(O)C[C@@H](O)CC[C@]4(C)[C@@]3(O)CC[C@]12C`: the EC50 is above 200 µM and the IC50 is 97.7 µM. Regarding `CC(C)(C)OC(=O)N1CCCC1C(=O)N1CCCC1C(=O)Oc1ccccc1` (stereo not drawn), the EC50 was above 67.6 µM and the IC50 is above 67.6 µM. For the compound `CC(=O)c1ccc2c(c1)CC1(C2)Cc2cc3c(cc2C1=O)CCC3` (stereo not drawn), the EC50 is above 200 µM and the IC50 was determined as 14.5 µM. Regarding `NNC(=O)CC(=O)Nc1ccc(S(=O)(=O)c2ccc(NC(=O)CC(=O)NN)cc2)cc1`, the EC50 is above 200 µM and the IC50 is above 200 µM. As for `CO/N=C/c1cc(NC(=S)c2ccoc2C)ccc1Cl`, the concentration for a half-maximal effect (EC50) is 0.0575 µM and the IC50 was 29.5 µM. Take `COc1nc2c(c(=O)n1C)NC(C(O)C(O)CO)C=N2` (stereo not drawn): the EC50 is 182 µM and 174 µM; the IC50 is above 200 µM. Regarding `C#C[C@]1(O)CC[C@H]2[C@@H]3CCC4=C/C(=N/OCCN(C)C)CC[C@]4(C)[C@H]3CC[C@@]21C`, the EC50 was above 100 µM and the IC50 came out at 4.79 µM. Regarding `O=C1NC(=Nc2ccccc2)C(=Nc2ccccc2)N1c1ccccc1`, the EC50 was above 200 µM and the IC50 amounted to 14.8 µM.

In the case of `N#Cc1c(N)nc(-c2ccc(Cl)cc2)c2c1-c1ccccc1S(=O)(=O)CC2`, the EC50 was above 100 µM and the IC50 is above 100 µM. Regarding `COC(=O)c1sc(C(=O)OC)c2c1CS(=O)C2`, the outcome was inactive. In the case of `CC(O)CS(=O)(=O)O` (stereo not drawn), the EC50 is above 200 µM and the IC50 was above 200 µM. In the case of `O=S(=O)(O)CN(CCN(CS(=O)(=O)O)CS(=O)(=O)O)CS(=O)(=O)O`, the EC50 was above 200 µM and the IC50 is 20.4 µM.

Take `COC(=O)/C=C/c1ccc2c(c1)CC1(C2)Cc2cc3c(cc2C1=O)CCC3` (stereo not drawn): the EC50 was above 100 µM and the half-inhibitory concentration (IC50) was above 100 µM. With `O=S(=O)([O-])C(F)(F)F.[Ru+2].[Ru+2].c1ccc2c(c1)Cc1ccccc1-2`, the EC50 is above 100 µM and the IC50 was above 100 µM. Regarding `CCOC(=O)c1nc(SC)sc1NC(=O)c1ccccc1[N+](=O)[O-]`, the EC50 was 195 µM and the IC50 was above 200 µM. For `C1=C(C2CCCC3[C@@H]4C[C@@H](CN23)C2CCCCN2C4)CCC2[C@H]3C[C@H](CN12)C1CCCCN1C3` (stereo partly drawn) the same measures were above 21.4 µM and above 21.4 µM. For `O=[N+]([O-])C1C=Nc2ccccc2N=C1`, the EC50 is above 200 µM and the half-inhibitory concentration (IC50) is above 200 µM. Turning to `O=C1NC(N/N=C\C(O)C(O)C(O)C(O)CO)=N/C1=C/c1ccc(Cl)cc1` (stereo not drawn), the EC50 is above 200 µM; the IC50 is 61.7 µM and 37.2 µM. Take `CC12CCC(O)CC1=CCC1C2CCC2(C)C3=NN=CC3CC12` (stereo not drawn): the EC50 was above 200 µM and the IC50 was found to be 12 µM. `CC(C)=C[C@@H]1C[C@H](C)[C@H]2CC[C@H](C)[C@H]3C(=O)C(O)=C(C)C(=O)[C@]123`: the EC50 is above 200 µM and the IC50 is 105 µM. Turning to `C/C=C(\C)C(=O)c1c(O)cc(O)c2ccc(=O)oc12`, the EC50 was above 200 µM and the IC50 was 112 µM. As for `CN(C)C=O.CN(C)C=O.CN1C(C(=O)Nc2ccccn2)=C([O-])c2ccccc2S1(=O)=O.CN1C(C(=O)Nc2ccccn2)=C([O-])c2ccccc2S1(=O)=O.[Cu+2]`, the outcome was inactive.

Regarding `CN1C/C(=C\c2cccs2)C2=NC(=S)NC(c3cccs3)C2C1` (stereo not drawn), the EC50 was above 200 µM and the IC50 stood at 36.3 µM. On to `CC(=O)O[C@H]1CC[C@H]2[C@@H]3CCc4cc(O)c(I)cc4[C@H]3CC[C@]12C`, for which the EC50 is above 200 µM and the IC50 was 12 µM. With `Cc1c([N+](=O)[O-])c(=O)oc2cc3occc(=O)c3cc12`, the EC50 is above 36.3 µM and the IC50 came to 18.2 µM. Take `O=c1c(OC2OC(CO)C(O)C(O)C2OC2OCC(O)(CO)C2O)c(-c2ccc(O)cc2)oc2cc(O)cc(O)c12` (stereo not drawn): the EC50 was above 42.7 µM and the IC50 was above 42.7 µM. As for `CCCc1n[nH]c(=O)n1N1C(=O)C=CC1=O`, the EC50 was above 200 µM and the 50% inhibitory concentration (IC50) is above 200 µM. In the case of `COC(=O)C1=C(O)C(C(=O)OC)[C@@]2(O)[C@@H](C(=O)OC)CC[C@@H]1[C@@H]2C(=O)OC` (stereo partly drawn), the EC50 is above 200 µM and the IC50 was found to be 38.9 µM. Take `COc1ccc2nc3ccc(OC)cc3c(S(=O)Cc3ccccc3)c2c1` (stereo not drawn): the EC50 was above 200 µM and the IC50 was found to be 1.23 µM.

With `COc1ccc2[nH]c(C(=O)N3CC(CCl)c4ccc(N)cc43)cc2c1` (stereo not drawn), the EC50 is above 2 µM and the IC50 turned out to be 0.389 µM. For `O=c1c(-c2ccccc2)nnc2n(Cc3ccccc3)c3ccccc3n12`, the EC50 is above 200 µM and the IC50 is 112 µM. Take `Nc1ccn(C2OC(COP(=O)(O)O)C(O)OC2O)c(=O)n1` (stereo not drawn): the outcome was inactive. For the compound `CCCCc1ccc(Nc2nc3c(ncn3COCCBr)c(=O)[nH]2)cc1`, the EC50 was above 200 µM and the IC50 was above 200 µM. As to `O=c1c(SCc2ccccc2)c(SCc2ccccc2)cnn1-c1ccccc1`, the EC50 was above 24 µM. For the compound `Cc1[nH]n(C2=NCCN2)c(=O)c1C`, the EC50 was above 200 µM and the half-maximal inhibitory concentration (IC50) was above 200 µM. Take `CC(C)(C)OC(=O)NCCNC(=O)OCc1ccccc1`: the EC50 was above 200 µM and the IC50 is above 200 µM. For the compound `O=C(C=Nc1ccccc1C(=O)[O-])c1ccco1.O=C(C=Nc1ccccc1C(=O)[O-])c1ccco1.[Zn+2]`, the EC50 was above 1.38 µM and the IC50 was above 1.38 µM.

`NC(CCCCNCc1ccccc1)C(=O)O` (stereo not drawn): the EC50 is above 1050 µM and the IC50 is above 1050 µM. On to `COc1ccc(/C=C/COC(C)=O)cc1OC`, for which the result was inactive.

On to `CC(C)c1ccc(C2C3=C(N=C4SCC(=O)N42)C(=O)c2ccccc23)cc1` (stereo not drawn), for which the EC50 was above 13.8 µM and the IC50 is above 13.8 µM. Turning to `CC(C)(O)[C@@H]1CC[C@@]2(C)CCCC(O)C2(O)C1` (stereo partly drawn), the result was inactive. With `C=CCC1([C@H](C)[C@@H](OC(C)=O)c2cc(OC)c(OC)c(OC)c2)C[C@@H](OC)CCC1=O` (stereo partly drawn), the EC50 is above 115 µM and the IC50 was determined as 6.03 µM. For the compound `CCOC(=O)C(NC(C)=O)(Nc1ccc(F)cc1)C(F)(F)F` (stereo not drawn), the outcome was inactive.

Turning to `Cc1cc2[nH]c3[nH]c(=O)[nH]c(=O)c3c2cc1C`, the EC50 was above 200 µM and the IC50 was found to be 170 µM. As to `O=c1[nH]c(=O)n(C2OC(CO)C(O)C(F)C2O)cc1F` (stereo not drawn), the EC50 was 186 µM and the IC50 was above 200 µM. Turning to `CC1=C(CO)C(=O)OC(C(C)C2CCC3C4CC5OC56C(O)C(N5CC5)=CC(=O)C6(C)C4CCC23C)C1` (stereo not drawn), the result was inactive. As to `O=c1[nH]c(CCc2ccccc2)nc2ccccc12`, the EC50 is above 7.94 µM and the IC50 was above 7.94 µM.

Take `CCOC(=O)C(C(C)=O)C(CC(=O)OC)NC(=O)OCc1ccccc1` (stereo not drawn): the EC50 is above 257 µM and the IC50 is above 257 µM. Take `O=C1OC(c2ccccc2)(c2ccccc2)CC1CN1CCOCC1` (stereo not drawn): the EC50 was above 57.5 µM and the concentration for half-maximal inhibition (IC50) turned out to be 12 µM.

Turning to `CCOc1ccc(C2Oc3c(cccc3OC)C=C2[N+](=O)[O-])cc1OCC` (stereo not drawn), the EC50 is above 200 µM and the IC50 was determined as 3.02 µM. In the case of `CCN=C(c1ccc(NC(=O)c2ccc(C(=O)Nc3ccc(C(=NCC)N(CC)CC)cc3)cc2)cc1)N(CC)CC`, the EC50 was above 200 µM and the IC50 worked out at 64.6 µM. With `O=C1c2ccccc2-c2c1c1ccccc1c(=O)n2-c1cccnc1`, the EC50 was above 30.9 µM and the IC50 was 7.08 µM. For `C=CCN1/C(=C(\C#N)c2nc3ccccc3[nH]2)Sc2c1nc[nH]c2=O` the same measures were above 10.7 µM and above 10.7 µM. `COc1ccc(C(C)=O)cc1CN1CCN(Cc2cc(C(C)=O)ccc2OC)CC1`: the EC50 is above 33.1 µM and the IC50 is above 33.1 µM.
